Results on ten compounds are retold here after paper PMC9516332 (Frontiers in Oncology, 2022).

The structures appear in SMILES notation. Where two headings read alike, the source gives them in different places.

Assay in all cases: Kinase panel profiling at 1 µmol/L (MSA or IMAP), percentage inhibition
What all share (assay type): biochemical

Assay [1] has as its target panel of 255 wild-type kinases (Homo sapiens, UniProt P24941). The note with it: 1 µmol/L single concentration.
Assay [2] deals with panel of 255 wild-type kinases (Homo sapiens, UniProt P49840). Conditions: kinase GSK3α; 1 µmol/L single concentration; read-out: %-inhibition at 1 µmol/L, GSK3α.
Assay [3] concerns the target panel of 255 wild-type kinases (Homo sapiens, UniProt P48730). The note with it: kinase CK1δ; 1 µmol/L single concentration; read-out: %-inhibition at 1 µmol/L, CK1δ.
In assay [4] the target is panel of 255 wild-type kinases (Homo sapiens, UniProt Q13627). The note with it: kinase DYRK1A; 1 µmol/L single concentration; read-out: %-inhibition at 1 µmol/L, DYRK1A.
Assay [5] addresses panel of 255 wild-type kinases (Homo sapiens, UniProt Q9H422). Conditions: kinase HIPK3; 1 µmol/L single concentration; read-out: %-inhibition at 1 µmol/L, HIPK3.
Assay [6] addresses T1, panel of 255 wild-type kinases (Homo sapiens, UniProt Q96L34).
T1 sequence (Q96L34 1-752): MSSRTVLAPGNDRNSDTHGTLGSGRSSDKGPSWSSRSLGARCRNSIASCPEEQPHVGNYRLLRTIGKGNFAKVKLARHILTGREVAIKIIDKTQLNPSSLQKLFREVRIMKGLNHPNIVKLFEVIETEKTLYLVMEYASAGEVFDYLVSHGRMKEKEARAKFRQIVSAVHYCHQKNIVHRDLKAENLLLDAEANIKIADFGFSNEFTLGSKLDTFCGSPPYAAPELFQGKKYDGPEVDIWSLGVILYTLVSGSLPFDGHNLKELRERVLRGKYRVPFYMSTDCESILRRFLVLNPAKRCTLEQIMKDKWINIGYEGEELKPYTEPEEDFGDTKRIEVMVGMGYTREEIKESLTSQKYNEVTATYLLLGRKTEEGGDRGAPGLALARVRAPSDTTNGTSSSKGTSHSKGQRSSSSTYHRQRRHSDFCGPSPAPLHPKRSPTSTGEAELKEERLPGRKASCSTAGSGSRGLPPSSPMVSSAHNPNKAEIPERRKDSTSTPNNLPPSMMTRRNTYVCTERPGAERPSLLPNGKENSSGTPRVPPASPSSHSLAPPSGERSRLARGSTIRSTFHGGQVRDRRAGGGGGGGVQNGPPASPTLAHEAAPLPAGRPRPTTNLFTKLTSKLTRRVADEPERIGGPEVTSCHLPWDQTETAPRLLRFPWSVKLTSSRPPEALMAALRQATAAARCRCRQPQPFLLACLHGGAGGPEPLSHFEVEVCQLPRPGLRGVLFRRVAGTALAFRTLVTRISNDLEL
Conditions: MARK4; 1 µmol/L single concentration; read-out: %-inhibition, MARK4.

In assay [7] the target is T2, panel of 255 wild-type kinases (Homo sapiens, UniProt P41743).
T2 sequence (P41743 1-596): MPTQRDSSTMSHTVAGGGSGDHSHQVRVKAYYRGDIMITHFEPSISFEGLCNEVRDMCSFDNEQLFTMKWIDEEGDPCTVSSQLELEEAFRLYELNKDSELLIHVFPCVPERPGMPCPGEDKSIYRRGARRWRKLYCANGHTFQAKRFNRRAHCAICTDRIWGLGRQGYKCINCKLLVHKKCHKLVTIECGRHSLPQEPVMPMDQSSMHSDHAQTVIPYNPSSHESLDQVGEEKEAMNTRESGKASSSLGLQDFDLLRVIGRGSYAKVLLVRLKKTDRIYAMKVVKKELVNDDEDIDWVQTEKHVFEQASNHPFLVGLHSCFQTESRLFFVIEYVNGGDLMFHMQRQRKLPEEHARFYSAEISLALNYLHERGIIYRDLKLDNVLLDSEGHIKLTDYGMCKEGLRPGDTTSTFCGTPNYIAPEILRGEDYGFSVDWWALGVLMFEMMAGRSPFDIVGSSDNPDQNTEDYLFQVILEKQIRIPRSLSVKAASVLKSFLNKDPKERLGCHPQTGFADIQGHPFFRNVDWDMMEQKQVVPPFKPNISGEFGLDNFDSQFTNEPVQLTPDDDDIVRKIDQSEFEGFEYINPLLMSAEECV
The note with it: kinase PKCι; 1 µmol/L single concentration; read-out: %-inhibition at 1 µmol/L, PKCι.

For assay [8], the target named is panel of 255 wild-type kinases (Homo sapiens, UniProt P22607). Conditions: read-out: %-inhibition at 1 µmol/L, FGFR3.
Assay [9] deals with T3, panel of 255 wild-type kinases (Homo sapiens, UniProt O00418).
T3 sequence (O00418 1-725): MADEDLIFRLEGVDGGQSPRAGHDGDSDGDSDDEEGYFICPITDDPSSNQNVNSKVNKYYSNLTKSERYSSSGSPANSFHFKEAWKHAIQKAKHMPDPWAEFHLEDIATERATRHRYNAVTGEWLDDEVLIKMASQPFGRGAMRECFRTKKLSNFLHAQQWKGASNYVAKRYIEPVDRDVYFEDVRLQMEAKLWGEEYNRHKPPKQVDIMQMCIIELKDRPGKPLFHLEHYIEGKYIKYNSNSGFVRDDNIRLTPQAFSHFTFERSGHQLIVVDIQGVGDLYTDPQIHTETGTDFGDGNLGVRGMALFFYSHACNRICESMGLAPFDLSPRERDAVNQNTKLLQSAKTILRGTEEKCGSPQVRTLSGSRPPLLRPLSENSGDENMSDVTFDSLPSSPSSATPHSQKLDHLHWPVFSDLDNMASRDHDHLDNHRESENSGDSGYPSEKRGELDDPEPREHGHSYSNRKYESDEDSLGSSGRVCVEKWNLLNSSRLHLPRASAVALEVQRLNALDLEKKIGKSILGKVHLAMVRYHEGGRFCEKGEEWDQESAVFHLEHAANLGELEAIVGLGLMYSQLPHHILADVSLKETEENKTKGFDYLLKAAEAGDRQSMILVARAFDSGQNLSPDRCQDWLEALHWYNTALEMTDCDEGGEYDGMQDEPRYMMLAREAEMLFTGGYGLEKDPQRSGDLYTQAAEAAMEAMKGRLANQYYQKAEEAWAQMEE
The note with it: kinase EEF2K; 1 µmol/L single concentration; read-out: %-inhibition at 1 µmol/L, EEF2K.

[10] abbreviates: CDK2/CycA2 kinase assay, read-out: %-inhibition CDK2/CycA2.
Setting [11] is: CDK2/CycE1 kinase assay, read-out: %-inhibition CDK2/CycE1.
The mark [12] stands for this setting: kinase FGFR3, 1 µmol/L single concentration.

Turning to `CCN1CCN(c2ccc(Nc3cc(N(C)C(=O)Nc4c(Cl)c(OC)cc(OC)c4Cl)ncn3)cc2)CC1` [infigratinib], the inhibition at 1 µM in assay [1] (setting [10]) is 11%; in assay [1] (setting [11]), -33%; in [2], -1.67%; in assay [3], -4.4%; in assay [4] it was -4%; in assay [5], -3.71%. Further, the inhibition at 1 µM was -3% in assay [6], -10% in assay [7], 102% in assay [8] (setting [12]) and 2.54% in [9].
For the compound `O=C(Nc1cnn2ccc(N3CCC[C@@H]3c3cc(F)ccc3F)nc12)N1CC[C@H](O)C1` [larotrectinib], the inhibition at 1 µM in assay [1] (setting [10]) was -2.44%; in assay [1] (setting [11]), -18%; in assay [2] it was -6.65%; in assay [3], -8%; in [4], -4.7%; in [5], -4%. Further, the inhibition at 1 µM is -6.42% in assay [6], -6% in [7], 1.36% in assay [8] and -2% in assay [9].
Consider `C[C@H]1Oc2cc(cnc2N)-c2c(nn(C)c2C#N)CN(C)C(=O)c2ccc(F)cc21` [lorlatinib], for which the inhibition at 1 µM in assay [1] (setting [10]) is 1.87%; in assay [1] (setting [11]) it was -6.33%; in assay [2], -2.36%; in assay [3] it was -6.46%; in assay [4] it was -4.39%; in assay [5], 0.506%. Besides, the inhibition at 1 µM in assay [6] was 18%; in assay [7], 19%; in assay [8] (setting [12]), -0.405%; in assay [9] it was -1.73%.
Take `CCN1C(=O)N(c2c(F)c(OC)cc(OC)c2F)Cc2cnc3[nH]c(CN4CCOCC4)cc3c21` [pemigatinib]: the inhibition at 1 µM in assay [1] (setting [10]) is 3.55%; in assay [1] (setting [11]), 7%; in assay [2] it was -5.3%; in assay [3] it was -4.55%; in assay [4], -2.67%; in [5] it was 0.456%. Also, the inhibition at 1 µM in [6] was 52%; in assay [7] it was -4%; in assay [8] (setting [12]), 100%; in [9] it was -3.26%.
Turning to `FC(F)(F)c1ccc(CNc2ccc(Cc3c[nH]c4ncc(Cl)cc34)cn2)cn1` [pexidartinib], the inhibition at 1 µM was 12% in assay [1] (setting [10]); -4% in [1] (setting [11]); 3% in assay [2]; -3.46% in assay [3]; 8% in assay [4]; 3.52% in [5]. The inhibition at 1 µM in assay [6] is 17%; in [7], 23%; in [8] (setting [12]) it was 68%; in assay [9], -2.25%.
On to `CO[C@]1(C(=O)N[C@@H](C)c2ccc(-n3cc(F)cn3)nc2)CC[C@H](c2nc(C)cc(Nc3cc(C)[nH]n3)n2)CC1` [pralsetinib], for which the inhibition at 1 µM in assay [1] (setting [10]) was 66%; in assay [1] (setting [11]), 58%; in assay [2], 62%; in [3], 0.94%; in assay [4], -3%; in [5], 9%. Moreover, the inhibition at 1 µM is -9% in [6], -7.5% in assay [7], 96% in assay [8] (setting [12]) and 1.23% in [9].
On to `CCn1c(=O)c(-c2cc(NC(=O)Nc3ccccc3)c(F)cc2Br)cc2cnc(NC)cc21` [ripretinib], for which the inhibition at 1 µM was -11% in [1] (setting [10]); -12% in [1] (setting [11]); -0.0405% in assay [2]; -8% in assay [3]; 1.4% in assay [4]; 4% in assay [5]. Further, the inhibition at 1 µM is -2.13% in assay [6], 21% in assay [7], 52% in assay [8] (setting [12]) and -2% in assay [9].
Turning to `COc1ccc(CN2C3CC2CN(c2ccc(-c4cc(OCC(C)(C)O)cn5ncc(C#N)c45)cn2)C3)cn1` [selpercatinib], the inhibition at 1 µM in [1] (setting [10]) is 0.89%; in [1] (setting [11]), -15%; in [2], 30%; in assay [3], -1.7%; in assay [4], 6%; in [5], -3%. Also, the inhibition at 1 µM in assay [6] is 25%; in assay [7], -0.803%; in [8] (setting [12]), 95%; in assay [9] it was -1.54%.
Take `Cn1cnc2c(F)c(Nc3ccc(Br)cc3Cl)c(C(=O)NOCCO)cc21` [selumetinib]: the inhibition at 1 µM in [1] (setting [10]) is 1.44%; in assay [1] (setting [11]) it was -55%; in assay [2], -1.06%; in assay [3] it was -1.44%; in assay [4], -3.48%; in assay [5] it was 3%. Also, the inhibition at 1 µM in assay [6] was -11%; in assay [7] it was -6.5%; in assay [8] (setting [12]) it was 2.76%; in assay [9] it was 2.4%.
On to `Cc1cc(Nc2ncnc3ccc(NC4=NC(C)(C)CO4)cc23)ccc1Oc1ccn2ncnc2c1` [tucatinib], for which the inhibition at 1 µM in [1] (setting [10]) was -0.285%; in assay [1] (setting [11]), -36%; in assay [2] it was 5.54%; in assay [3], -2.17%; in assay [4], -3.25%; in [5] it was 2.27%. The inhibition at 1 µM in assay [6] was -0.473%; in [7], -2.24%; in assay [8] (setting [12]), 2.63%; in assay [9], -2.79%.
